In patent US20140057915A1, “KINASE INHIBITORS” (TOPIVERT PHARMA LIMITED, priority 2012, published 2014):
Where two headings read alike, the source gives them in different places.

Columns and labels:
[1] = target: cSrc (Homo sapiens, UniProt P12931); assay: c-Src enzyme inhibition (FRET); assay type: biochemical
Procedure, shortened: (§1)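 Kinase activity is measured on a dual-labelled synthetic peptide by FRET. ATP is supplied as an 800 μM solution for c-Src and a 60 μM solution for Syk. Compound is tested at four added concentrations, 4 to 0.004 μg/mL.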

[2] = test system: ICAM-1 expression, BEAS2B cells; assay: Poly I:C-induced ICAM-1 expression in BEAS2B cells; assay type: cell-based; conditions: Homo sapiens, BEAS-2B; read-out: Poly IC induced ICAM1 in BEAS2B, IC50
Procedure, shortened: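 Cell-based ELISA for surface ICAM-1 in human BEAS2B cells 18 h after transfection with the RNA-virus mimic poly I:C (1 μg/mL, with Oligofectamine), compounds added 2 h beforehand. OD450–655 divided by Crystal Violet OD595 per well; percent inhibition relative to vehicle.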

[3] = target: T1, GSK3α (Homo sapiens, UniProt P49840); assay: GSK 3α enzyme inhibition (FRET), Method 1; assay type: biochemical; conditions: Table 4a1
Procedure, shortened: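 Inhibition is scored from phosphorylation of a dual-labelled synthetic peptide, measured by FRET after protease cleavage of unphosphorylated substrate. Incubations are 2 hr compound with enzyme, then 1 hr kinase reaction.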

[4] = test system: d-U937 cells; assay: Cell viability: MTT assay; assay type: cell-based, human; conditions: 1 μg/mL
Procedure, shortened: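 MTT reduction (1 h, DMSO solubilisation, A550) measured after compound treatment at 1 or 10 μg/mL of differentiated U937 cells for 4 h (5% FCS RPMI1640) or 24 h (10% FCS). Percentage viability loss computed relative to 0.5% DMSO vehicle, with increases tabulated as negative values.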

[5] = target: Syk (Homo sapiens, UniProt P43405); assay: Syk enzyme inhibition (FRET); assay type: biochemical
Procedure, shortened: as §1

[6] = test system: TNFα release, d-U937 cells; assay: LPS-induced TNFα release in d-U937 cells; assay type: cell-based; conditions: Homo sapiens, dU937; for EC50: relative to 10 μg/mL BIRB796, Table 4c1, read-out: LPS Induced Release of Cytokine in d-U937 Cells, TNFα REC50; for IC50: Table 4c2, different laboratory, read-out: IC50 Values for Inhibition of Cytokine Release, dU937 cells, TNFα
Procedure, shortened: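 Sandwich ELISA quantifies cytokine in supernatants after 4 hr LPS challenge (0.1 μg/mL) of PMA-differentiated (100 ng/mL, 48–72 hr) U937 macrophages given compound 2 hr beforehand. REC50 derived from concentration-response curve, inhibition calculated relative to vehicle.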

[7] = target: p38 MAPKα isoform (MAPK14) (Homo sapiens, UniProt Q16539); assay: p38 MAPKα enzyme inhibition (FRET, Z-LYTE), Method 1; assay type: biochemical; conditions: Table 4a1
Procedure: The enzyme inhibitory activities of compounds disclosed herein are determined by FRET using synthetic peptides labelled with both donor and acceptor fluorophores (Z-LYTE, Invitrogen Ltd., Paisley, UK).
The following two assay variants are used for determination of p38 MAPKα inhibition.
The inhibitory activities of test compounds against the p38 MAPKα isoform (MAPK14: Invitrogen), are evaluated indirectly by determining the level of activation/phosphorylation of the down-stream molecule, MAPKAP-K2. The p38 MAPKα protein (80 ng/mL, 2.5 μL) is mixed with the test compound (2.5 μL of either 4 μg/mL, 0.4 μg/mL, 0.04 μg/mL or 0.004 μg/mL) for 2 hr at RT. […] The mixture is incubated for 1 hr at RT. Development reagent (protease, 5 μL) is added for 1 hr prior to detection in a fluorescence microplate reader (Varioskan® Flash, ThermoFisher Scientific).
In all cases, the site-specific protease cleaves non-phosphorylated peptide only and eliminates the FRET signal. Phosphorylation levels of each reaction are calculated using the ratio of coumarin emission (donor) over fluorescein emission (acceptor), for which high ratios indicate high phosphorylation and low ratios indicate low phosphorylation levels.

[8] = test system: IL-8 release, d-U937 cells; assay: LPS-induced IL-8 release in d-U937 cells; assay type: cell-based; conditions: Homo sapiens, dU937
Procedure, shortened: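 IL-8 release after a 4 hr challenge with LPS (0.1 μg/mL, E. coli 0111:B4) following a 2 hr compound pretreatment. Cells were human U937 monocytes differentiated to macrophage-type with PMA 100 ng/mL for 48–72 hr. Relative 50% effective concentration derived from concentration–response data.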

[9] = target: T2, human ether a go-go (hERG) channel (Homo sapiens, UniProt Q12809); assay: hERG inhibition (IonWorks patch clamp electrophysiology); assay type: cell-based; conditions: maximum final assay concentration 3 μM
T2 construct: a Chinese Hamster Lung cell line stably expressing the full length hERG channel
Procedure: Eight-point concentration curves were generated using serial 3-fold dilutions from the maximum final assay concentration (3 μM). Electrophysiological recordings were made from a Chinese Hamster Lung cell line stably expressing the full length hERG channel. Single cell ionic currents were measured in the perforated patch clamp configuration (100 μg/mL) amphotericin) at room temperature (21-23° C.) using an IonWorks Quattro instrument. The internal solution contained (mM): 140 KCl, 1 MgCl2, 1 EGTA, 20 HEPES and was buffered to pH 7.3. The external solution contained (mM):138 NaCl, 2.7 KCl, 0.9 CaCl2, 0.5 MgCl2, 8 Na2HPO4, 1.5 KH2PO4, also buffered to pH 7.3. Cells were clamped at a holding potential of −70 mV for 30 s and then stepped to +40 mV for 1 s. This was followed by a hyperpolarising step of 1s to −30 mV to evoke the hERG tail current. This sequence was repeated 5 times at a frequency of 0.25 Hz. Currents were measured from the tail step at the 5th pulse, and referenced to the holding current. Compounds were then incubated for 6-7 minutes prior to a second measurement of the hERG signal using an identical pulse train. Eight-point concentration curves were generated using serial 3-fold dilutions from the maximum final assay concentration (3 μM).

[10] = test system: PBMC cells; assay: Cell mitosis assay; assay type: cell-based; conditions: Homo sapiens, read-out: % Inhibition of mitosis in PBMC cells at 5 μg/mL
Procedure, shortened: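 Healthy-donor PBMCs (3 million cells per sample) stimulated with 2% PHA for 48 hr, then exposed 20 hr to varying compound concentrations. Demecolcine (0.1 μg/mL) added 2 hr before collection to arrest cells in metaphase; read by flow cytometry gated on lymphocytes.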

[11] = test system: IL-8 release, HT29 cells; assay: IL-1β-induced IL-8 release in HT29 cells; assay type: cell-based; conditions: Homo sapiens, HT-29; IL-1β stimulated; read-out: IC50 Values for Inhibition of Cytokine Release, HT29 cells, IL-8
Procedure: (d) IL-1β-Induced IL-8 Release in HT29 Cells
HT29 cells, a human colon adenocarcinoma cell line, are plated in a 96 well plate (24 hrs) and pre-treated with compounds at the desired concentration for 2 hours before addition of 5 ng/ml of IL-1β (Abeam) for 24 hours, Supernatants are harvested for IL-8 quantification by Sandwich ELISA (Duo-set, R&D System). The IC50 is determined from the dose response curve.

[12] = target: T1, GSK3α; assay: GSK 3α enzyme inhibition (FRET), Method 2; assay type: biochemical; conditions: Table 4a2, different laboratory
[13] = test system: IFN gamma release, PBMCs; assay: IFN gamma release in CD3/CD28 stimulated PBMC cells; assay type: cell-based; conditions: Homo sapiens, read-out: IC50 Values for Inhibition of Cytokine Release, PBMCs, IFNγ
Procedure: (§2) (c) IL-2 and IFN Gamma Release in CD3/CD28 Stimulated PBMC Cells
(§3) PBMCs from healthy subjects are separated from whole blood using a density gradient (Lymphoprep, Axis-Shield Healthcare). Cells are added to a 96 well plate pre-coated with a mixture of […] monoclonal antibodies (0.3 ug/ml eBioscience and 3 ug/ml BD Pharmingen respectively). Compound at the desired concentration is then added to the wells and the plate left for 3 days under normal tissue culture conditions. Supernatants are harvested and IL-2 and IFN gamma release determined by Sandwich ELISA (Duo-set, R&D System). The IC50 is determined from the dose response curve.

[14] = test system: IL-8 release, PBMCs; assay: LPS-induced IL-8 release in PBMC cells; assay type: cell-based; conditions: Homo sapiens, LPS stimulated, read-out: IC50 Values for Inhibition of Cytokine Release, PBMCs, IL-8
Procedure, shortened: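 PBMCs from healthy donors pretreated with compound for 2 h, then stimulated with 1 ng/ml LPS (E. coli 0111:B4) for 24 h at 37 °C, 5% CO2. Supernatant IL-8 and TNFα measured by sandwich ELISA with fluorescence read-out.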

[15] = test system: IL-2 release, PBMCs; assay: IL-2 release in CD3/CD28 stimulated PBMC cells; assay type: cell-based; conditions: Homo sapiens, read-out: IC50 Values for Inhibition of Cytokine Release, PBMCs, IL-2
Procedure: as §2, §3

[16] = test system: mice; assay: Mouse cigarette (tobacco) smoke model; assay type: in vivo; conditions: 1.75 μg/mouse (35 μL, bid, i.n.)
From the text: The result of treatment with compound Example (8) on macrophage and neutrophil accumulation in BALF in the mouse cigarette smoke model was investigated (Table 5).

[17] = Table 4c1, read-out: LPS Induced Release of Cytokine in d-U937 Cells, IL-8 IC50
[18] = Table 4a2, different laboratory
[19] = Table 4c2, different laboratory, read-out: IC50 Values for Inhibition of Cytokine Release, dU937 cells, IL-8

Chain of cSrc (P12931 whole entry): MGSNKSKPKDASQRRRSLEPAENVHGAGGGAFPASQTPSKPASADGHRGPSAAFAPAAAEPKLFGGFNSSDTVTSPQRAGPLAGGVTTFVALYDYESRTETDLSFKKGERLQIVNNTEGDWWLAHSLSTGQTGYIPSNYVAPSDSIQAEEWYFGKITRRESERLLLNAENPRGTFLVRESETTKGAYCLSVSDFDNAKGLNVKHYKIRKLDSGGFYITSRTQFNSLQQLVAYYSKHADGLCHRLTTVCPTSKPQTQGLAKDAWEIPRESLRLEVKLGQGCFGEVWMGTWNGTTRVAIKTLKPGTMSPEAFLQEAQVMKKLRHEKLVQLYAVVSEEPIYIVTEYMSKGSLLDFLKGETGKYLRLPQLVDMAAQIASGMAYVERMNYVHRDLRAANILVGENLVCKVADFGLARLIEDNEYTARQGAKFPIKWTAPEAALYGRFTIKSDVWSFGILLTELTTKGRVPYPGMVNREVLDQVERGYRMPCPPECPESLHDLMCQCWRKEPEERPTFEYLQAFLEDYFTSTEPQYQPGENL
T1 sequence (P49840 whole entry): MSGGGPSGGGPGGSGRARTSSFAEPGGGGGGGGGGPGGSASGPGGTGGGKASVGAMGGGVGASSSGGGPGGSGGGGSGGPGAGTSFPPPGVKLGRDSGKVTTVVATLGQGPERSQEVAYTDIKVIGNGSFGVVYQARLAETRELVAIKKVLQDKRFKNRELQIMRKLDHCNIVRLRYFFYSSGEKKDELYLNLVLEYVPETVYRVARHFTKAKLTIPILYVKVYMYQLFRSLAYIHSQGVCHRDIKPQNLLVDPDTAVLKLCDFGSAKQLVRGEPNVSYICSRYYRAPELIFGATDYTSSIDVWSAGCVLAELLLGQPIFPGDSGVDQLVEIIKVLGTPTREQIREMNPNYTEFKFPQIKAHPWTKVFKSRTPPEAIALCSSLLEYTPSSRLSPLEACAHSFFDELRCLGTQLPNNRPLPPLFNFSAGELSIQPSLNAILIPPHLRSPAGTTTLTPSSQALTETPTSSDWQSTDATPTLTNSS
Chain of p38 MAPKα isoform (MAPK14) (Q16539 whole entry, canonical isoform): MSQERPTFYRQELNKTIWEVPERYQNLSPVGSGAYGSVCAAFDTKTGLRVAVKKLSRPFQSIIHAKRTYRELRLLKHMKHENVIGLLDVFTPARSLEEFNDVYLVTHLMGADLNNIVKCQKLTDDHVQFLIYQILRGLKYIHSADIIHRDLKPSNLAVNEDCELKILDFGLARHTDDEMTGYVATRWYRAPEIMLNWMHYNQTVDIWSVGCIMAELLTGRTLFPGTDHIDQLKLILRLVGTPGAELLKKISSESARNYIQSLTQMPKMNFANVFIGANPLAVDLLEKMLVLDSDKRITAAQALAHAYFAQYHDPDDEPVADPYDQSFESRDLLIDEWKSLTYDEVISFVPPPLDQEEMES
T2 sequence (Q12809 whole entry): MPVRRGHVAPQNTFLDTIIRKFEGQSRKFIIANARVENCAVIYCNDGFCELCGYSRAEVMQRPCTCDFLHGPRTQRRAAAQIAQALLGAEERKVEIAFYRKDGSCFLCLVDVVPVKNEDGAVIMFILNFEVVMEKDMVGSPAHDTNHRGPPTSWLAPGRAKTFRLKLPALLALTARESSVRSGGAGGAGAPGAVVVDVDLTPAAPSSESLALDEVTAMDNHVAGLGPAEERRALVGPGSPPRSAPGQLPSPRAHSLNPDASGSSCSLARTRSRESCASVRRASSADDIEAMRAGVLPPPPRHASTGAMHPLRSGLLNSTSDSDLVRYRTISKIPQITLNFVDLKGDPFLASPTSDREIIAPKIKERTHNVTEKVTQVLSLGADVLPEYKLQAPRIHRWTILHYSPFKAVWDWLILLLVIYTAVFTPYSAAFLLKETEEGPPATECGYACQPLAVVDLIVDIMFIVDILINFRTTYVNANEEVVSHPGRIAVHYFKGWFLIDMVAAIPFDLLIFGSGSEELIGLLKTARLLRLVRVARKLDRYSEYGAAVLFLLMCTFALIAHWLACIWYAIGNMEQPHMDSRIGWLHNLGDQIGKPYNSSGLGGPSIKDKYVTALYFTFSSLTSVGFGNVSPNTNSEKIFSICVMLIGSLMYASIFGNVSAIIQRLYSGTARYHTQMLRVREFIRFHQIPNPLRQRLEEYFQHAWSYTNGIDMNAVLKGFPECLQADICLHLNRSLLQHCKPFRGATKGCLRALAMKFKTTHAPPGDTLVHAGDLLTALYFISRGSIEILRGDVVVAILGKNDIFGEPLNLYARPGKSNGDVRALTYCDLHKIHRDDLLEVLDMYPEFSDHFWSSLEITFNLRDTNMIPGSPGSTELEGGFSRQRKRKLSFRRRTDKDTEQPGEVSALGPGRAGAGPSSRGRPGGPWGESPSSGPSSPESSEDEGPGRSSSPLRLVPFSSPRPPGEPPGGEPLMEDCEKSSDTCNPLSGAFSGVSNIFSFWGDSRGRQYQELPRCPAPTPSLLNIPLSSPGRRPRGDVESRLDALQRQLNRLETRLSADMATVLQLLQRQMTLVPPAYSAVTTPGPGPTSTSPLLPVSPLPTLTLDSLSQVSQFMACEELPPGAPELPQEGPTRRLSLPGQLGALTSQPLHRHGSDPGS

| SMILES | IC50 ([1]; Table 4a1) [nM] | IC50 [2] [nM] | IC50 [3] [nM] | Cell viability at time point in d-U937 cells, 4 h [4] | Cell viability at time point in d-U937 cells, 24 h [4] | IC50 ([5]; Table 4a1) [nM] | EC50 [6] [nM] | IC50 [7] [nM] | IC50 [8, 17] [nM] | IC50 [1, 18] [nM] | IC50 [9] [nM] | inhibition at 5 µg/mL [10] [%] | IC50 [11] [nM] | IC50 [5, 18] [nM] | IC50 [12] [nM] | IC50 [13] [nM] | IC50 [6] [nM] | IC50 [8, 19] [nM] | IC50 [14] [nM] | IC50 [15] [nM] | further results |
| --- | --- | --- | --- | --- | --- | --- | --- | --- | --- | --- | --- | --- | --- | --- | --- | --- | --- | --- | --- | --- | --- |
| COc1ccc(Nc2nccc(Oc3ccc(NC(=O)Nc4cc(C(C)(C)C)nn4-c4ccc(C)cc4)c4ccccc34)n2)cc1C(=O)NCCN1CCOCC1 [Example 13, 5-((4-((4-(3-(3-(tert-Butyl)-1-(p-tolyl)-1H-pyrazol-5-yl)ureido)naphthalen-1-yl)oxy)pyrimidin-2-yl)amino)-2-methoxy-N-(2-morpholinoethyl)benzamide] | 2 | 1.7 | 672 | −ve (−ve and +ve indicate that the value is below and above respectively, the no significant effect threshold, defined as 30% inhibition at 1 μg/mL at the time point indicated) | −ve (−ve and +ve indicate that the value is below and above respectively, the no significant effect threshold, defined as 30% inhibition at 1 μg/mL at the time point indicated) | 16 | 0.4 | 24 | 0.3 | – | – | – | – | – | – | – | – | – | – | – | – |
| COc1ccc(C(=O)NCCN(C)C)cc1Nc1nccc(Oc2ccc(NC(=O)Nc3cc(C(C)(C)C)nn3-c3ccc(C)cc3)c3ccccc23)n1 [Example 29, 3-((4-((4-(3-(3-(tert-butyl)-1-(p-tolyl)-1H-pyrazol-5-yl)ureido)naphthalen-1-yl)oxy)pyrimidin-2-yl)amino)-N-(2-(dimethylamino)ethyl)-4-methoxybenzamide] | < 1 | 15.1 | 3210 | −ve (−ve and +ve indicate that the value is below and above respectively, the no significant effect threshold, defined as 30% inhibition at 1 μg/mL at the time point indicated) | −ve (−ve and +ve indicate that the value is below and above respectively, the no significant effect threshold, defined as 30% inhibition at 1 μg/mL at the time point indicated) | 147 | 3.8 | < 1 | 13.7 | – | – | – | – | – | – | – | – | – | – | – | – |
| C#Cc1cc(Nc2nccc(Oc3ccc(NC(=O)Nc4cc(C(C)(C)C)nn4-c4ccc(C)cc4)c4ccccc34)n2)cc(C(=O)NCCN2CCOCC2)c1 [Example 75, 3-((4-((4-(3-(3-(tert-Butyl)-1-(p-tolyl)-1H-pyrazol-5-yl)ureido)naphthalen-1-yl)oxy)pyrimidin-2-yl)amino)-5-ethynyl-N-(2-morpholinoethyl)benzamide] | – | – | – | – | – | – | – | – | – | 11 | > 3000 | 2.8 | 1.3 | 28 | 1370 | 3 | 0.4 | 0.3 | 1 | 76.9 | – |
| C#Cc1cc(Nc2nccc(Oc3ccc(NC(=O)Nc4cc(C(C)(C)C)nn4-c4ccc(C)cc4)c4ccccc34)n2)cc(C(=O)N[C@@H](C)CN2CCOCC2)c1 [Example 81, (S)-3-((4-((4-(3-(3-(tert-Butyl)-1-(p-tolyl)-1H-pyrazol-5-yl)ureido)naphthalen-1-yl)oxy)pyrimidin-2-yl)amino)-5-ethynyl-N-(1-morpholinopropan-2-yl)benzamide] | – | – | – | – | – | – | – | – | – | 21 | > 3000 | -2.6 | 7.4 | 61 | 10400 | 1.8 | 1.4 | 1.5 | 3.2 | 112 | – |
| CCC(=O)O[C@]1(C(=O)SCF)[C@H](C)C[C@H]2[C@@H]3C[C@H](F)C4=CC(=O)C=C[C@]4(C)[C@@]3(F)[C@@H](O)C[C@@]21C [fluticasone propionate] | – | – | – | – | – | – | – | – | – | – | – | – | – | – | – | – | – | – | – | – | neutrophil or macrophage accumulation into airways [16]: did not inhibit |
